Data taken from PubChem BioAssay AID330 (DTP/NCI, 2004).
Several values for one entry are separate records, joined by “and”; a condition that tells them apart may be missing. Equal entries are not always repeated. Toxic doses and inconclusive results are not listed.

Tested on: P388 leukemia ip, CD2F1 mice, survival T/C
Assay: NCI In Vivo Anticancer Drug Screen. Data for tumor model P388 Leukemia (intraperitoneal) in CD2F1 (CDF1) mice
Conditions: endpoint: median survival time, higher = longer survival
Outline: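 Mice carrying the transplanted tumor received test compound or vehicle. Survival was recorded in each group, and the value is the treated-group measurement divided by that of the vehicle-treated control group.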

[1] = dose: 12.5 mg/kg/injection, schedule: Q04DX003 (ip), vehicle: saline
[2] = dose: 25.0 mg/kg/injection, schedule: Q04DX003 (ip), vehicle: saline
[3] = dose: 50.0 mg/kg/injection, schedule: Q04DX003 (ip), vehicle: saline
[4] = dose: 100.0 mg/kg/injection, schedule: Q04DX003 (ip), vehicle: saline
[5] = dose: 50.0 mg/kg/injection, schedule: Q01DX005 (ip), vehicle: Klucel (hydroxypropylcellulose) (HPC)
[6] = dose: 100.0 mg/kg/injection, schedule: Q01DX005 (ip), vehicle: Klucel (hydroxypropylcellulose) (HPC)
[7] = dose: 60.0 mg/kg/injection, schedule: Q01DX005 (ip), vehicle: saline
[8] = dose: 120.0 mg/kg/injection, schedule: Q01DX005 (ip), vehicle: saline
[9] = dose: 240.0 mg/kg/injection, schedule: Q01DX005 (ip), vehicle: saline
[10] = dose: 50.0 mg/kg/injection, schedule: Q01DX009 (ip), vehicle: Klucel (hydroxypropylcellulose) (HPC)
[11] = dose: 100.0 mg/kg/injection, schedule: Q01DX009 (ip), vehicle: Klucel (hydroxypropylcellulose) (HPC)
[12] = dose: 200.0 mg/kg/injection, schedule: Q01DX009 (ip), vehicle: Klucel (hydroxypropylcellulose) (HPC)
[13] = dose: 6.25 mg/kg/injection, schedule: Q01DX009 (ip), vehicle: Klucel (hydroxypropylcellulose) (HPC)
[14] = dose: 12.5 mg/kg/injection, schedule: Q01DX009 (ip), vehicle: Klucel (hydroxypropylcellulose) (HPC)
[15] = dose: 50.0 mg/kg/injection, schedule: Q01DX005 (ip), vehicle: saline with Tween-80
[16] = dose: 100.0 mg/kg/injection, schedule: Q01DX005 (ip), vehicle: saline with Tween-80

`COc1ccc2c(c1O)-c1c(O)c(OC)cc3c1[C@H](C2)[N+](C)(C)CC3` was tested, and the T/C [1] was 109 % of control, the T/C [2] was 114 % of control and the T/C [3] was 98 % of control and 109 % of control. For the same molecule, the T/C [4] was 113 % of control.

For `O=C1C=CC(=O)N1c1ccc(Cl)cc1Cl`, the T/C (dose: 3.12 mg/kg/injection, schedule: Q04DX003 (ip), vehicle: saline with Tween-80) was 105 % of control, the T/C (dose: 6.25 mg/kg/injection, schedule: Q04DX003 (ip), vehicle: saline with Tween-80) was 109 % of control and the T/C (dose: 12.5 mg/kg/injection, schedule: Q04DX003 (ip), vehicle: saline with Tween-80) was 96 % of control.

In the case of `CC(=O)NCCSSCCCCSSCCNC(C)=O`, the T/C [5] is reported as 112 % of control and the T/C [6] is reported as 112 % of control.

For `O=C(c1ccccc1)C(O)(CC(c1ccccc1)[P+](c1ccccc1)(c1ccccc1)c1ccccc1)c1ccccc1` (stereo unspecified), the T/C (dose: 1.32 mg/kg/injection, schedule: Q01DX009 (ip), vehicle: saline with Tween-80) was 90 % of control, the T/C (dose: 2.0 mg/kg/injection, schedule: Q01DX009 (ip), vehicle: saline with Tween-80) was 104 % of control and the T/C (dose: 3.0 mg/kg/injection, schedule: Q01DX009 (ip), vehicle: saline with Tween-80) was 113 % of control. The T/C (dose: 4.5 mg/kg/injection, schedule: Q01DX009 (ip), vehicle: saline with Tween-80) was 118 % of control.

In the case of `Cc1cccnc1Nc1ncccc1C`, the T/C [7] is reported as 102 % of control, the T/C [8] is reported as 102 % of control and the T/C [9] is reported as 102 % of control.

For `N#[N+]c1ccc2c(S(=O)(=O)Nc3ccc(-c4ccc(NS(=O)(=O)c5cccc6c([O-])c([N+]#N)ccc56)cc4)cc3)cccc2c1[O-]`, the T/C [10] was 102 % of control, the T/C [11] was 99 % of control and the T/C [12] was 98 % of control.

With `O=C1/C(=C\O)C2CCC3CCC4CC1C342` (stereo unspecified) the T/C (dose: 25.0 mg/kg/injection, schedule: Q01DX005 (ip), vehicle: Klucel (hydroxypropylcellulose) (HPC)) was 103 % of control, the T/C [5] was 97 % of control and the T/C [6] was 107 % of control.

In the case of `CC1=C/C(=C(\c2ccccc2)c2cc(C)c(O)c(CNCC(=O)O)c2)C=C(CNCC(=O)O)C1=O`, the T/C [7] is reported as 95 % of control, the T/C [8] is reported as 103 % of control and the T/C [9] is reported as 108 % of control.

With `COc1c(Br)cc(/C=C/[N+](=O)[O-])cc1Br` the T/C (dose: 6.25 mg/kg/injection, schedule: Q01DX009 (ip), vehicle: saline with Tween-80) was 124 % of control and the T/C (dose: 12.5 mg/kg/injection, schedule: Q01DX009 (ip), vehicle: saline with Tween-80) was 112 % of control.

`c1ccc(-c2nc3cnccc3o2)cc1` was tested, and the T/C [13] was 103 % of control, the T/C [14] was 105 % of control and the T/C (dose: 25.0 mg/kg/injection, schedule: Q01DX009 (ip), vehicle: Klucel (hydroxypropylcellulose) (HPC)) was 114 % of control. For the same molecule, the T/C [10] was 112 % of control.

In the case of `COc1cc2c(c(OC)c1OC)-c1ccc(OC)c(=O)cc1[C@@H](NC(=O)CF)CC2`, the T/C (dose: 23.4 micrograms/kg/injection, schedule: Q01DX009 (ip), vehicle: saline) is reported as 121 % of control, the T/C (dose: 93.7 micrograms/kg/injection, schedule: Q01DX009 (ip), vehicle: saline) is reported as 152 % of control and the T/C (dose: 187.5 micrograms/kg/injection, schedule: Q01DX009 (ip), vehicle: saline) is reported as 152 % of control. For the same molecule, the T/C (dose: 250.0 micrograms/kg/injection, schedule: Q04DX003 (ip), vehicle: saline) was 163 % of control, the T/C (dose: 375.0 micrograms/kg/injection, schedule: Q01DX009 (ip), vehicle: saline) was 161 % of control and the T/C (dose: 500.0 micrograms/kg/injection, schedule: Q04DX003 (ip), vehicle: saline) was 204 % of control. The T/C (dose: 2000.0 micrograms/kg/injection, schedule: Q04DX003 (ip), vehicle: saline) was 122 % of control.

With `COC(=O)c1cc(=O)nc(N/N=C/c2cc(OC)ccc2OC)s1` the T/C [15] was 95 % of control, the T/C [16] was 94 % of control and the T/C (dose: 200.0 mg/kg/injection, schedule: Q01DX005 (ip), vehicle: saline with Tween-80) was 95 % of control.

With `CC1(C)CC(=O)[C@H]2SCC(=O)CC21` (stereo partly specified) the T/C [15] was 86 % of control and the T/C [16] was 99 % of control.

`CCCCCCCCCCCCOC(=O)c1ccc(I)cc1` was tested, and the T/C (dose: 50.0 mg/kg/injection, schedule: Q01DX009 (ip), vehicle: saline with Tween-80) was 97 % of control, the T/C (dose: 100.0 mg/kg/injection, schedule: Q01DX009 (ip), vehicle: saline with Tween-80) was 97 % of control and the T/C (dose: 200.0 mg/kg/injection, schedule: Q01DX009 (ip), vehicle: saline with Tween-80) was 102 % of control.

For `N=c1ncn(C2OC(CO)C(O)C2O)c2nc[nH]c12` (stereo unspecified), the T/C [13] was 113 % of control and the T/C [14] was 108 % of control.

For `CC(=O)OC1CCC2(C)C(C1)CC(OC(C)=O)C1C2CC(OC(C)=O)C2(C)C(/C(C)=C\C=C(c3ccccc3)c3ccccc3)CCC12` (stereo unspecified), the T/C [10] was 103 % of control, the T/C [11] was 112 % of control and the T/C [12] was 121 % of control.

In the case of `O=c1oc2ccccc2cc1-n1nnc2cc([N+](=O)[O-])ccc21`, the T/C (dose: 60.0 mg/kg/injection, schedule: Q01DX005 (ip), vehicle: saline with Tween-80) is reported as 91 % of control, the T/C (dose: 120.0 mg/kg/injection, schedule: Q01DX005 (ip), vehicle: saline with Tween-80) is reported as 89 % of control and the T/C (dose: 240.0 mg/kg/injection, schedule: Q01DX005 (ip), vehicle: saline with Tween-80) is reported as 99 % of control.

In the case of `C/C=C\C(C)=C/C(C)C(=O)CC(O)CC1CC(=O)NC(=O)C1` (stereo unspecified), the T/C (dose: 1.56 mg/kg/injection, schedule: Q01DX009 (ip), vehicle: DMSO) is reported as 91 % of control, the T/C (dose: 3.12 mg/kg/injection, schedule: Q01DX009 (ip), vehicle: DMSO) is reported as 98 % of control and the T/C (dose: 6.25 mg/kg/injection, schedule: Q01DX009 (ip), vehicle: DMSO) is reported as 93 % of control. The T/C (dose: 12.5 mg/kg/injection, schedule: Q01DX009 (ip), vehicle: DMSO) was 100 % of control and the T/C (dose: 25.0 mg/kg/injection, schedule: Q01DX009 (ip), vehicle: DMSO) was 107 % of control.

With `CCN(CC)C(=Nc1ccccc1)NC#N` the T/C [5] was 110 % of control, the T/C [6] was 105 % of control and the T/C (dose: 200.0 mg/kg/injection, schedule: Q01DX005 (ip), vehicle: Klucel (hydroxypropylcellulose) (HPC)) was 96 % of control.

`CCOC(=O)CNCc1cccnc1` was tested, and the T/C [1] was 103 % of control, the T/C [2] was 106 % of control and 94 % of control and the T/C [3] was 100 % of control and 103 % of control. For the same molecule, the T/C [4] was 104 % of control and 94 % of control and the T/C (dose: 200.0 mg/kg/injection, schedule: Q04DX003 (ip), vehicle: saline) was 97 % of control.

`O=C(CSC(SCC(=O)Nc1ccccc1)c1ccccc1)Nc1ccccc1` was tested, and the T/C (dose: 60.0 mg/kg/injection, schedule: Q01DX005 (ip), vehicle: Klucel (hydroxypropylcellulose) (HPC)) was 101 % of control and the T/C (dose: 120.0 mg/kg/injection, schedule: Q01DX005 (ip), vehicle: Klucel (hydroxypropylcellulose) (HPC)) was 86 % of control.

In the case of `O=S1(=O)C=C(Cl)C1`, the T/C [15] is reported as 110 % of control and the T/C [16] is reported as 96 % of control.

`O=C(O)/C=C\C(=O)NCCCCCC(=O)O` was tested, and the T/C [10] was 102 % of control, the T/C [11] was 103 % of control and the T/C [12] was 105 % of control.

For `CN1C(=O)C2C=CC1C1C(=O)N(c3ccc([N+](=O)[O-])cc3)C(=O)C21` (stereo unspecified), the T/C (dose: 100.0 mg/kg/injection, schedule: Q04DX002 (ip), vehicle: saline with Tween-80) was 103 % of control, the T/C (dose: 200.0 mg/kg/injection, schedule: Q04DX002 (ip), vehicle: saline with Tween-80) was 95 % of control and the T/C (dose: 400.0 mg/kg/injection, schedule: Q04DX002 (ip), vehicle: saline with Tween-80) was 95 % of control.

With `NC(=S)c1cccc(/C=N/n2cnnc2)c1` the T/C (dose: 100.0 mg/kg/injection, schedule: Q04DX003 (ip), vehicle: Klucel (hydroxypropylcellulose) (HPC)) was 97 % of control, the T/C (dose: 200.0 mg/kg/injection, schedule: Q04DX003 (ip), vehicle: Klucel (hydroxypropylcellulose) (HPC)) was 93 % of control and the T/C (dose: 400.0 mg/kg/injection, schedule: Q04DX003 (ip), vehicle: Klucel (hydroxypropylcellulose) (HPC)) was 90 % of control.

For `OC1N2CCSC2=NC1(c1ccccc1)c1ccccc1` (stereo unspecified), the T/C (dose: 18.75 mg/kg/injection, schedule: Q04DX003 (ip), vehicle: Klucel (hydroxypropylcellulose) (HPC)) was 107 % of control, the T/C (dose: 37.5 mg/kg/injection, schedule: Q04DX003 (ip), vehicle: Klucel (hydroxypropylcellulose) (HPC)) was 95 % of control and the T/C (dose: 75.0 mg/kg/injection, schedule: Q04DX003 (ip), vehicle: Klucel (hydroxypropylcellulose) (HPC)) was 100 % of control. The T/C (dose: 150.0 mg/kg/injection, schedule: Q04DX003 (ip), vehicle: Klucel (hydroxypropylcellulose) (HPC)) was 110 % of control and the T/C (dose: 300.0 mg/kg/injection, schedule: Q04DX003 (ip), vehicle: Klucel (hydroxypropylcellulose) (HPC)) was 93 % of control.

`C[CH2][Sn]1([CH2]C)[O]C(=O)CCCCC(=O)[O]1` was tested, and the T/C [1] was 115 % of control.
